Measured values published in publication PMC8815339 (The Biochemical journal, 2009).
Like-named read-outs stand apart in the source and are kept apart here.

How the values were obtained:
[1] = molecular target: T1, recombinant PfPRMT1 (MBP-PfPRMT1) (Plasmodium falciparum, UniProt Q8ILK1); assay: Inhibition of recombinant PfPRMT1 methylation activity; type: biochemical; conditions: chaetocin: in the lower micromolar concentration
T1 sequence (Q8ILK1 1-401): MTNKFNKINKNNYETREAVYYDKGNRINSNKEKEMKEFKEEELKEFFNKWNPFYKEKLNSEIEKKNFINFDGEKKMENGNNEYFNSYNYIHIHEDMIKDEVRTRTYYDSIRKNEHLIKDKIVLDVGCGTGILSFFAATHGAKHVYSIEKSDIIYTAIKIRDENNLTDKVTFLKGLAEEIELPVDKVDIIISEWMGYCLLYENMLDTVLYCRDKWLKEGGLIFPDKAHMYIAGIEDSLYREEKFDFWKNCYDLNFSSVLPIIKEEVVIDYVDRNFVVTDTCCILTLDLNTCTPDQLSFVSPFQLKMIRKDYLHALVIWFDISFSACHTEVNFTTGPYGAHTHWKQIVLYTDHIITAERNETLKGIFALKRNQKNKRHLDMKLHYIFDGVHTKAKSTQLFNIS

P. falciparum 3D7-luc = assay: Parasite growth inhibition, luciferase-expressing strain 3D7-luc; type: cell-based, Plasmodium falciparum; conditions: for IC50: read-out: IC50s for 3D7 growth
rat PRMT1 (rPRMT1) = conditions: cited from earlier work
[2] = Plasmodium falciparum, 3D7, 48 h
[3] = late ring-stage parasites, 48 h, 37°C, 2% parasitemia, 2% hematocrit

Compound | Inhibition of PfPRMT1 (in words) [1] | IC50 (P. falciparum 3D7-luc; [2]) [µM] | also measured
CN1C(=O)[C@@]23C[C@]4([C@]56C[C@@]78SS[C@@](CO)(C(=O)N7[C@H]5Nc5ccccc56)N(C)C8=O)c5ccccc5N[C@@H]4N2C(=O)[C@]1(CO)SS3 [Chaetocin] | no obvious inhibition | 14 ± 1.56 | 
Nc1ncnc2c1ncn2[C@@H]1O[C@H](C[C@@H](N)CC[C@H](N)C(=O)O)[C@@H](O)[C@H]1O [Sinefungin] |  | 2.71 ± 0.04 | IC50s for 3D7 growth (P. falciparum 3D7-luc; [3]): lower micromolar
C[S+](CC[C@H](N)C(=O)[O-])C[C@H]1O[C@@H](n2cnc3c(N)ncnc32)[C@H](O)[C@@H]1O (stereo partly drawn) [AdoMet, S-adenosylmethionine] |  |  | Km (rat PRMT1 (rPRMT1); read-out: Km, rPRMT1, ref [31]): 2.52 ± 0.54 µM; kcat, rPRMT1 (rat PRMT1 (rPRMT1); ref [31]): 0.014 ± 0.0005 s⁻¹
CSC[C@H]1O[C@@H](n2cnc3c(N)ncnc32)[C@H](O)[C@@H]1O [5-Deoxy-5-methylthioadenosine (MTA), 5-Deoxy-5-methylthioadenosine] |  |  | IC50 (P. falciparum 3D7-luc; [3]): > 100 µM
O=C1OC2(c3ccccc31)c1cc(Br)c(O)c(Br)c1Oc1c2cc(Br)c(O)c1Br [Eosin Y (AMI-5), Eosin Y] | strong inhibitory activity | 14.8 ± 1.01 | 
